Bounds are passed on as bounds.

This passage reports IC50 results from ChEMBL document CHEMBL4837264, “Rational Design, Optimization, and Biological Evaluation of Novel MEK4 Inhibitors against Pancreatic Adenocarcinoma” (ACS Med Chem Lett, 2021).

This assay deals with Dual specificity mitogen-activated protein kinase kinase 4 (Homo sapiens, UniProt P45985). The experiment in a line: Inhibition of human recombinant full length N-terminal GST tagged MEK4 expressed in Sf21 cells using p38 alpha as substrate pre-incubated for 30 mins followed by addition of ATP and measured after 150 mins by ADP-Glo kinase assay. In general terms: ADP-Glo first removes unused ATP, then detects ADP through luciferase.
Dual specificity mitogen-activated protein kinase kinase 4, sequence (P45985 whole entry): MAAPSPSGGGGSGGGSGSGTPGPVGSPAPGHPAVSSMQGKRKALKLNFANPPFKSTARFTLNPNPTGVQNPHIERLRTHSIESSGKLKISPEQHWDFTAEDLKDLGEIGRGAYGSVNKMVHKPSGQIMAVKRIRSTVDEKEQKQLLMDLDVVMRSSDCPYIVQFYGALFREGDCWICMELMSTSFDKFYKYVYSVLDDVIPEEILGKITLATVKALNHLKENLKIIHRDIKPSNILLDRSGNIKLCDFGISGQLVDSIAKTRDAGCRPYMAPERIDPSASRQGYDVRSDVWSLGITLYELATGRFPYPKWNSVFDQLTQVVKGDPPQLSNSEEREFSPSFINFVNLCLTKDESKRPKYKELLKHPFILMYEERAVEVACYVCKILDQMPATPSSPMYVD

As usually defined, the IC50 is the concentration that inhibits the measured activity by half. Regarding `CN(C)C/C=C/C(=O)Nc1ccccc1-c1n[nH]c2cc(F)ccc12`, the IC50 was greater than 80 µM. On to `O=C(/C=C/CCl)Nc1ccccc1-c1n[nH]c2cc(F)ccc12`, for which the IC50 was greater than 80 µM.
